Key:
[1] = test system: Ac2-L-Lys-D-Ala-D-Lac (33); assay: Model ligand binding, ligand of vancomycin-resistant organisms
[2] = test system: VanA vancomycin-resistant E. faecium (VRE); assay: In vitro antimicrobial activity, VanA VRE; format: cell-based; conditions: comparator named in value
[3] = test system: methicillin-susceptible S. aureus (MSSA); assay: In vitro antimicrobial activity, MSSA; format: cell-based
[4] = test system: methicillin-resistant S. aureus (MRSA); assay: In vitro antimicrobial activity, MRSA; format: cell-based
[5] = 30 vs CBP-vancomycin, 31 vs G3,CBP-vancomycin

| Substance | Ka, binding to model ligand 33 [1] [M⁻¹] | fold less effective binding of 33 than of Ac2-L-Lys-D-Ala-D-Ala [1] [fold] | antimicrobial activity against VanA VRE, result in words [2] | fold improvement of activity relative to 1 [3] [fold] | activity compared with the corresponding vancomycin derivative, in words [3, 5] | fold improvement of activity relative to 1 [4] [fold] | activity compared with the corresponding vancomycin derivative, in words [4, 5] |
| --- | --- | --- | --- | --- | --- | --- | --- |
| 2e,6e-dichlorovancomycin [Compound 1] | < 470 | 1000 | inactive | – | – | – | – |
| CBP-tetrachlorovancomycin [Compound 30] | – | – | comparable to CBP-vancomycin | 50 | indistinguishable | 50 | indistinguishable |
| vancomycin [reference compound] | – | – | inactive | – | – | – | – |

Source: PMC10538376 (Journal of the American Chemical Society, 2023)
